This note sets out measurements from ChEMBL document CHEMBL5137028, “Progress and Challenges in Targeting the SARS-CoV-2 Papain-like Protease” (J Med Chem, 2022).

By EC50 is commonly meant the concentration giving half of the maximal effect.

In this test the test system is SARS-CoV-2. The experiment in a line: Antiviral activity against SARS-CoV-2 nCoV-2019BetaCoV/Wuhan/WIV04/2019 infected in African green monkey Vero E6 cells assessed as viral growth inhibition pretreated for 1 hr followed by infection at MOI of 0.01 and replacement of fresh medium containing compound measured after 24 hrs by plaque reduction assay. The note with it: Severe acute respiratory syndrome coronavirus 2, nCoV-2019BetaCoV/Wuhan/WIV04/2019, Vero C1008. Format: functional, organism-based. On the technique in general: Plaque reduction counts the foci of infection that form in a cell layer.
Regarding `C[C@H]1COC2=C1C(=O)C(=O)c1c2ccc2c1CCCC2(C)C` [CRYPTOTANSHINONE], the half-maximal effective concentration (EC50) is 700 nM.

For the molecule `COCC[n+]1c2c(n(Cc3cnccn3)c1C)C(=O)c1ccccc1C2=O` [SEPANTRONIUM BROMIDE], the EC50 was determined as 170 nM.

With `Cc1coc2c1C(=O)C(=O)c1c-2ccc2c(C)cccc12` [TANSHINONE I], the EC50 was found to be 2260 nM.
